Source: US4120857A, “Derivatives of 1,2,3,3-tetramethyl-2-azabicyclo[2.2.2]octan-5-endo-ol” (priority 1977, dated 1978)
Where two headings read alike, the source gives them in different places.

Key:
[1] = test system: ventricular fibrillation by chloroform; test: Mouse Chloroform Test (antiarrhythmic activity); assay type: in vivo, female swiss albino mice; details: mice; for ED50: Mus musculus, read-out: ED50, dose required to protect 50% of the test animals against development of ventricular fibrillation by chloroform
Description: 160:22-30 (1968). The test compounds were administered orally (p.o.) or intraperitoneally (i.p.) to female swiss albino mice weighing 16-24 grams. The arrhythmia induced by the chloroform was monitored by electrocardiogram recording and the normal and abnormal heart beats were tabulated.

corneal reflex = test: Local Anesthetic Test (corneal reflex procedure); assay type: in vivo, rabbits; details: one drop into the conjunctival sac of one rabbit eye; isotonic saline
Description: In this test a corneal reflex was elicited in rabbits by lightly touching the cornea with a stiff hair or bristle which normally would cause the rabbit to blink. The assay was carried out using initially a 2% solution or suspension of the test compound in isotonic saline. A cup or pouch was formed of the lower eyelid by pulling down the lower lid, and one drop of the test compound was instilled into the conjunctival sac of one eye. The other eye serves as a control. The corneal reflex was tested every fifteen minutes until the reflex returned to normal. If the reflex could be elicited 3 out of 5 times, then there was considered to be no local anesthetic effect. If the reflex was blocked and the compound was determined to be a local anesthetic, lower concentrations were tested to determine the minimum concentration needed for local anesthetic activity. Results for several of the compounds of the present invention are expressed in the table below as the MEC (minimum effective concentration) or minimum concentration of compound required for local anesthetic activity.

[2] = test system: genetically hypertensive (spontaneously hypertensive) rats of the Okamato strain; test: Spontaneously Hypertensive Rat Test (antihypertensive activity); assay type: in vivo; details: po, compounds dosed orally, five animals per test dose, read-out: MED (minimum effective dose), dose required to give a minimum of a 20 mm Hg drop in blood pressure from control
Text: Clin. Med. 78:957-962 (1971). Five animals were used for each test dose. Results of the test are expressed in the table below as the MED (minimum effective dose) or dose required to give a minimum of a 20 mm Hg drop in blood pressure from control. | *compounds dosed orally

Row | SMILES | ED50 ([1]; po) | MEC (minimum effective concentration), minimum concentration of compound required for local anesthetic activity (corneal reflex) | ED50 ([1]; ip) | further results
1 | CCCC(=O)O[C@@H]1C[C@@]2(C)CC[C@@H]1C(C)(C)N2C (relative stereo) [Example 2D, 5-endo-Butyryloxy-1,2,3,3-tetramethyl-2-azabicyclo[2.2.2]-octane] | 80 mg/kg | – | – | –
2 | CN1C(C)(C)[C@H]2CC[C@]1(C)C[C@H]2OC(=O)c1ccc(N)cc1 (relative stereo) [Example 2F, 5-endo-(p-Aminobenzoyloxy)-1,2,3,3-tetramethyl-2-azabicyclo-[2.2.2]octane] | 25 mg/kg | 2.0% | 6.3 mg/kg | –
3 | CN1C(C)(C)[C@H]2CC[C@]1(C)C[C@H]2OCCCNC(=O)C(c1ccccc1)c1ccccc1 (relative stereo) [Example 4, 5-endo-(3-Diphenylacetylaminopropyloxy)-1,2,3,3-tetramethyl-2-azabicyclo[2.2.2]octane] | 10 mg/kg | 0.5% | – | –
4 | CC(=O)O[C@@H]1C[C@@]2(C)CC[C@@H]1C(C)(C)N2C (relative stereo) [Example 1, 5-endo-Acetoxy-1,2,3,3-tetramethyl-2-azabicyclo[2.2.2]-octane] | – | – | – | minimal effective dose [2]: 12.5 mg/kg
5 | CN1C(C)(C)[C@H]2CC[C@]1(C)C[C@H]2OC(=O)Nc1ccccc1 (relative stereo) [Example 5, 5-endo-Phenylcarbamoyloxy-1,2,3,3-tetramethyl-2-azabicyclo[2.2.2]octane] | 44 mg/kg | – | – | –
6 | CN1C(C)(C)[C@H]2CC[C@]1(C)C[C@H]2OCCCNC(=O)c1ccccc1 (relative stereo) [Example 3, 5-endo-(3-Benzoylaminopropyloxy)-1,2,3,3-tetramethyl-2-azabicyclo[2.2.2]octane] | 10 mg/kg | 0.5% | – | –
7 | CN1C(C)(C)[C@H]2CC[C@]1(C)C[C@H]2OC(=O)C(c1ccccc1)c1ccccc1 (relative stereo) [Example 2G, 5-endo-(Diphenylacetoxy)-1,2,3,3-tetramethyl-2-azabicyclo[2.2.2]-octane] | 20 mg/kg | 0.25% | 12.5 mg/kg | –
8 | COc1cc(C(=O)O[C@@H]2C[C@@]3(C)CC[C@@H]2C(C)(C)N3C)cc(OC)c1OC (relative stereo) [Example 2C, 5-endo-(3,4,5-Trimethoxybenzoyl-oxy)-1,2,3,3-tetramethyl-2-azabicyclo[2.2.2]octane] | – | – | 50 mg/kg | –
9 | CN1C2(C)CCC(C(OC(=O)c3ccccc3)C2)C1(C)C (stereo not drawn) [Example 2B, 5-endo-Benzoyloxy-1,2,3,3-tetramethyl-2-azabicyclo(2.2.2]-octane] | – | – | – | ED50, dose required to protect 50% of the test animals against development of ventricular fibrillation by chloroform ([1]; i.p.): 50 mg/kg
10 | CN1C(C)(C)[C@H]2CC[C@]1(C)C[C@H]2OC(=O)C1CC1 (relative stereo) [Example 2A, 5-endo-Cyclopropylcarbonyloxy-1,2,3,3-tetramethyl-2-azabicyclo-[2.2.2]octane] | – | – | – | minimal effective dose [2]: 25 mg/kg
